From US20260216294A1, “BETA 2-ADRENERGIC RECEPTOR AGONISTS FOR TREATMENT OR PREVENTION OF MUSCLE WASTING” (ATROGI AB, priority 2023, published 2026)

Assays:
[1] = test system: L6-myotubes; experiment: Measurement of intracellular cAMP levels in differentiated L6-myotubes (Biological Example 3); format: cell-based; conditions: for intracellular cAMP levels: L6-myotubes, 15 min stimulation, compared with isoprenaline, FIGS. 2a-2d; for Emax at 10 µM: 0.25 h
Summary of the method: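 Intracellular cAMP quantified by AlphaScreen after ethanol extraction and lysis of L6 myotubes. Cells were serum-starved overnight, then exposed for 15 min to compound (final 1×10^−5 M) or isoprenaline in IBMX-containing (1 mM) HBSS buffer, pH 7.4.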

[2] = test system: L6-myotubes; experiment: Glucose uptake in differentiated L6-myotubes (Biological Example 2); format: cell-based; conditions: for glucose uptake: L6-myotubes, FIGS. 2a-2d; for Emax at 10 µM: read-out: Biological example 2 (GU)
Summary of the method: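 Uptake was quantified as radioactivity in 0.2 M NaOH lysates after a 10 min pulse of 50 nM ^3H-2-deoxyglucose. The pulse followed two agonist exposures at 1×10^−5 M final (isoprenaline or test compound): 1 h 40 min, then 20 min in glucose-free medium after washing. L6 myotubes had been starved overnight in medium with 0.5% fatty-acid-free BSA.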

[3] = biological target: T1, β2-adrenergic receptor (Rattus norvegicus, UniProt P10608); experiment: Glucose uptake in the presence of the selective β2-adrenergic receptor antagonist ICI-118551 (Biological Example 1); format: cell-based; conditions: L6-myotubes; test compound 1×10^−5 M; different concentrations of ICI-118551; FIGS. 1a-1c
T1 construct: endogenous in cells; host or cells: L6 myoblasts differentiated into myotubes
T1 sequence (P10608 whole entry): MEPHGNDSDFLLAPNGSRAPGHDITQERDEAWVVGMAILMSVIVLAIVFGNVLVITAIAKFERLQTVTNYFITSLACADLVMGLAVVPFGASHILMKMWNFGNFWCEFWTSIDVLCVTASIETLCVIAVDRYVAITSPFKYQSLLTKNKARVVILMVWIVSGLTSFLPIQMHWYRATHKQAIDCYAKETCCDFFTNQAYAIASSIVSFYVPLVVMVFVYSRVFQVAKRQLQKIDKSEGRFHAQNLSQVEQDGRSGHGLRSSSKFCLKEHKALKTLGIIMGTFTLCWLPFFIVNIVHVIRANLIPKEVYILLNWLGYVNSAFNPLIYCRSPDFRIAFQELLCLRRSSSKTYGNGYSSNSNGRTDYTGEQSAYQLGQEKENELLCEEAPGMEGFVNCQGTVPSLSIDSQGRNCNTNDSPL
Procedure: L6-myoblasts were grown in Dulbecco's Modified Eagle's Medium (DMEM) containing 1 g/L glucose supplemented with 10% fetal bovine serum (FBS), 2 mM L-glutamine, 50 U/mL penicillin, 50 μg/mL streptomycin and 10 mM HEPES. Cells were plated at 1×10^5 cells per mL in 24-well plates. After reaching 90% confluence the cells were grown in medium containing 2% FBS for 7 days where upon cells differentiated into myotubes. The differentiated L6-myotubes were serum-starved overnight in medium containing 0.5% fatty-acid free BSA and stimulated with the test compound at a final concentration of 1×10^−5 M in the presence of different concentrations of the selective β2-adrenergic receptor antagonist ICI-118551. After 1 h 40 min the cells were washed with warm, glucose free medium twice and another portion of agonist was added to the glucose free medium. After another 20 min of incubation the cells were exposed to 50 nM ^3H-2-deoxyglucose for 10 min before washed in ice cold glucose free medium three times and lysed in 400 μL/well 0.2 M NaOH for 1 h at 60° C. The cell lysate was mixed with 4 ml scintillation buffer (Emulsifier Safe, Perkin Elmer) and the radioactivity was detected in a β-counter (Tri-Carb 4810TR, Perkin Elmer).

[4] = biological target: T2, β2-adrenergic receptor (Homo sapiens, UniProt P07550); experiment: β-arrestin 2 recruitment, Large BiT/Small BiT luciferase complementation in HEK293 cells (Biological Example 4); format: cell-based; conditions: luminescence after 31 min, compared with isoprenaline, FIGS. 3a-3c
T2 construct: expressed in transfected cells; host or cells: HEK293
T2 sequence (P07550 whole entry, species assumed): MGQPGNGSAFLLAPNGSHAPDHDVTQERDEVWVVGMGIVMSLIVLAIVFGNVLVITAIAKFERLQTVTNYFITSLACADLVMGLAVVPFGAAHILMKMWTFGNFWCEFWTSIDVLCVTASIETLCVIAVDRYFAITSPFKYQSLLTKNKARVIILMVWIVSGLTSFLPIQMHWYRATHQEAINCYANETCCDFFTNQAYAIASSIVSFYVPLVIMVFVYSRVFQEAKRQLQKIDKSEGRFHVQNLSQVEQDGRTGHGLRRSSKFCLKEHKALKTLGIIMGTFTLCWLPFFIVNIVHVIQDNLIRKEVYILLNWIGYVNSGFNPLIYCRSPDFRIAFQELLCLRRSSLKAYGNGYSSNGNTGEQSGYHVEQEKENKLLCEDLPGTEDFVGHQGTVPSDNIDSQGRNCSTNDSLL
Procedure: HEK293 cells are transfected with both the β2-adrenergic receptor attached with a Large BiT SNAP-tag protein, and with p-arrestin 2 attached to a Small BiT SNAP-tag protein. When cells are stimulated and the receptor recruits β-arrestin 2, the Small- and Large-BiT proteins merge, forming a functional luciferase enzyme, that in presence of furimazine generates light. After 31 min, the light is measured with a luminescence plate reader.

[5] = test system: C57Bl/6 mice; experiment: Body weight and lean mass in mice treated with dexamethasone (Biological Example 5); format: in vivo; conditions: male C57Bl/6 mice, daily s.c. for 3 weeks, dexamethasone sodium phosphate 10 mg/kg, Compound A 47.1 μmol/kg
Procedure: 40 eight-week-old male C57Bl/6 mice kept on standard chow diet were grouped-caged (2-3 mice per cage) at 21° C. The mice had similar body weight and body composition and were divided into four groups (n=10) and were treated daily with subcutaneous injections for 3 weeks with either dexamethasone sodium phosphate (10 mg/kg) or Compound A (47.1 μmol/kg (corresponding to dose 10 mg/kg of the free base)), or a combination of dexamethasone and Compound A. Control mice received saline. Body weight and lean mass were measured after 6, 12 and 20 days of treatment.

[6] = test system: C57Bl/6N mice; experiment: Combination of Compound C and liraglutide in mice on high-fat, high-sucrose diet (Biological Example 8); format: in vivo; conditions: diet-induced obese mice; daily s.c. for 2 weeks; liraglutide 0.1 mg/kg, Compound C 5 mg/kg; FIG. 12b
Procedure: 2.5 Months old male C57Bl/6N mice were grouped caged (4-5 mice per cage), kept at 30° C. and fed with high-fat, high-sucrose diet (45% fat) for 5 months. The mice were divided into four groups (2-3 mice per cage) according to their fasting blood glucose levels, glucose tolerance, body weight, body fat and lean mass, and treated daily for 2 weeks, subcutaneously with either vehicle, liraglutide (0.1 mg/kg), Compound C (5 mg/kg), or a mixture of liraglutide (0.1 mg/kg) and Compound C (5 mg/kg). Food intake and body weight were measured every other day; body fat and lean mass were measured weekly.

[7] = intracellular cAMP, compound at 10 μM relative to isoproterenol at 10 μM
[8] = glucose uptake, compound at 10 μM relative to isoproterenol at 10 μM

CC(C)(C)NC[C@H](O)c1cccc(F)c1.Cl [Compound A, (R)-2-(tert-Butylamino)-1-(3-fluorophenyl)ethan-1-ol hydrochloride]
intracellular cAMP levels [1]: low intracellular cAMP levels
glucose uptake [2]: full glucose uptake response
glucose uptake promoted by the compound in the presence of ICI-118551 [3]: inhibited in a dose-dependent manner
β-arrestin 2 recruitment [4]: minimal p-arrestin 2 recruitment
body weight ([5]; FIG. 4): effect is reversed
lean mass ([5]; FIG. 5): effect is reversed

CC(C)(C)NC[C@H](O)c1ccc(F)c(N)c1F.O=C(O)/C=C\C(=O)O [Compound C, (R)-1-(3-Amino-2,4-difluorophenyl)-2-(tert-butylamino)ethan-1-ol maleate]
intracellular cAMP levels [1]: low intracellular cAMP levels
glucose uptake [2]: full glucose uptake response
glucose uptake promoted by the compound in the presence of ICI-118551 [3]: inhibited in a dose-dependent manner
β-arrestin 2 recruitment [4]: minimal p-arrestin 2 recruitment
change in lean mass [6]: significantly lower as compared to administration of liraglutide alone

CC(C)(C)NC[C@H](O)c1cncc(F)c1.O=C(O)C(O)C(O)C(=O)O [Compound B, (R)-2-(tert-Butylamino)-1-(5-fluoropyridin-3-yl)ethan-1-ol hemi-tartrate]
intracellular cAMP levels [1]: low intracellular cAMP levels
glucose uptake [2]: full glucose uptake response
glucose uptake promoted by the compound in the presence of ICI-118551 [3]: inhibited in a dose-dependent manner
β-arrestin 2 recruitment [4]: minimal p-arrestin 2 recruitment

CC1(C)CCC[C@H]([C@@H](O)c2ccccc2Cl)N1 [Compound 163, (S)-[(R)-6,6-dimethyl-2-piperidyl](o-chlorophenyl)methanol]
Emax at 10 µM [1, 7]: < 25%
Emax at 10 µM [2, 8]: > 75%

CS(=O)(=O)N[C@H]1CC[C@@H](C[C@@H]2CC[C@H]([C@@H](O)c3cccc(F)c3)N2)CC1 [Compound 511]
Emax at 10 µM ([1]; intracellular cAMP in differentiated L6-myotubes, compound at 10 μM, activity relative to isoproterenol at 10 μM): < 25%
Emax at 10 µM ([2]; glucose uptake in differentiated L6-myotubes, compound at 10 μM, activity relative to isoproterenol at 10 μM): 25 to 50%

CC1(C)CC[C@@H]([C@@H](O)c2cccc(O)c2)N1 [Compound 143]
Emax at 10 µM [1, 7]: < 25%
Emax at 10 µM [2, 8]: < 25%

C[C@H]1CC[C@@H]([C@H](O)c2cccc(O)c2)N1 (racemic) [Compound 40, Racemic mixture of m-{(R)-[(2S,5S)-5-methyl-2-pyrrolidinyl] hydroxymethyl} phenol and m-{(S)-[(2R,5R)-5-methyl-2-pyrrolidinyl] hydroxymethyl} phenol]
Emax at 10 µM [1, 7]: < 25%
Emax at 10 µM [2, 8]: 50 to 75%
